Results as given in patent publication US20190307729A1, “ANTIMICROBIAL COMPOUNDS AND METHODS FOR USE THEREOF” (VERSITECH LIMITED, priority 2016, published 2019).
Read-outs that look alike come from different tables or passages of the source.

Test system: S. aureus Mu3
Experiment: Secondary screening of compound 13 analogues in combination with gentamicin (growth by OD 595 nm)
Settings: for relative growth: relative to DMSO = 1; for inhibition at 50 µM / activity at 5 µM / activity at 20 µM / activity at 50 µM / inhibition at 20 µM: Staphylococcus aureus; for activity at 5 µM / activity at 20 µM / activity at 50 µM: MU3, 16 h, read-out: relative growth; for inhibition at 20 µM: MU3, read-out: 20 μM + 200 μg/ml Gentamicin Growth inhibition Percentage
[1] = [Cpd] 5 μM, BHI only (no gentamicin)
[2] = [Cpd] 20 μM, BHI only (no gentamicin)
[3] = [Cpd] 50 μM, BHI only (no gentamicin)
[4] = MU3, read-out: 50 μM + 200 μg/ml Gentamicin Growth inhibition Percentage

Method: All screening is done in 384-well polystyrene microtiter plates (Greiner Bio-One). Overnight culture of Mu3 is washed with BHI medium 3 times, diluted and plated to give 5×10^5 CFU/mL per well. The plates are incubated at 37° C. for 16 hours and growth is monitored by optical density reading at 595 nm using an automated DTX 880 multimode detector. Screening using BHI medium is designated as the background screen. […] Sub MIC concentration of antibiotics is selected for screening. BHI containing a final concentration for gentamicin 156.25 μg/mL is used correspondingly for individual experiments. […] Screening results with various antibiotics is normalized with the background screening to calculate the percentage of growth inhibition.
Identical experimental procedures are performed as primary screening procedures, except different concentrations of selected compound are tested.
Secondary like screening was performed with different concentrations of each analogue compounds were tested with different gentamicin concentration, 50 μM, 20 μM and 5 μM compound concentration were used against, BHI containing, 0 μg/ml, 100 μg/ml and 200 μg/ml gentamicin.

In the case of `O=C(O)CN1C(=O)/C(=C/c2ccccc2)SC1=S` [Compound 1], the relative growth [1] is reported as 1.38, the relative growth ([Cpd] 5 μM, [Genta] 100 ug/ml) is reported as 1.29 and the relative growth ([Cpd] 5 μM, [Genta] 200 ug/ml) is reported as 1.45. The relative growth [2] was 1.22, the relative growth ([Cpd] 20 μM, [Genta] 100 ug/ml) was 1.1 and the relative growth ([Cpd] 20 μM, [Genta] 200 ug/ml) was 1.05. It also gave a relative growth [3] of 1, a relative growth ([Cpd] 50 μM, [Genta] 100 ug/ml) of 1.11 and a relative growth ([Cpd] 50 μM, [Genta] 200 ug/ml) of 1.01.
With `COC(=O)c1ccccc1` [Compound 2] the “20 μM + 200 μg/ml Gentamicin Growth inhibition Percentage” value (20 μM compound + 200 μg/ml gentamicin, S. aureus Mu3, 20 µM) was 35%, the inhibition at 50 µM (MU3, read-out: 50 μM + 200 μg/ml Gentamicin Growth inhibition Percentage, 50 μM compound + 200 μg/ml gentamicin, S. aureus Mu3) was 76% and the relative growth [1] was 1.15. It also gave a relative growth ([Cpd] 5 μM, [Genta] 100 ug/ml) of 1.1, a relative growth ([Cpd] 5 μM, [Genta] 200 ug/ml) of 1.2 and a relative growth [2] of 1.08. For the same compound, the relative growth ([Cpd] 20 μM, [Genta] 100 ug/ml) was 0.93, the relative growth ([Cpd] 20 μM, [Genta] 200 ug/ml) was 0.65 and the relative growth [3] was 1.07. The relative growth ([Cpd] 50 μM, [Genta] 100 ug/ml) was 0.62 and the relative growth ([Cpd] 50 μM, [Genta] 200 ug/ml) was “*0.24”.
`COc1cc(/C=C2\SC(=S)N(CC(=O)O)C2=O)ccc1OCc1ccc(Cl)cc1` [Compound 6] showed an activity at 5 µM of 120%, an activity at 20 µM of 114% and an activity at 50 µM of 79%. The inhibition at 20 µM was 90%, the inhibition at 50 µM [4] was 89% and the relative growth ([Cpd] 5 μM, [Genta] 100 ug/ml) was 1.13. For the same compound, the relative growth ([Cpd] 5 μM, [Genta] 200 ug/ml) was 1.11, the relative growth ([Cpd] 20 μM, [Genta] 100 ug/ml) was 0.61 and the relative growth ([Cpd] 20 μM, [Genta] 200 ug/ml) was “*0.1”. The relative growth ([Cpd] 50 μM, [Genta] 100 ug/ml) was “*0.2” and the relative growth ([Cpd] 50 μM, [Genta] 200 ug/ml) was “*0.11”.
In the case of `COc1ccc(/C=C2\SC(=S)N(CC(=O)O)C2=O)cc1OCc1ccc(Cl)cc1` [Compound 15], the activity at 5 µM is reported as 102%, the activity at 20 µM is reported as 97% and the activity at 50 µM is reported as 79%. For the same compound, the inhibition at 20 µM was 91%, the inhibition at 50 µM [4] was 89% and the relative growth ([Cpd] 5 μM, [Genta] 100 ug/ml) was 1.01. For the same compound, the relative growth ([Cpd] 5 μM, [Genta] 200 ug/ml) was 1, the relative growth ([Cpd] 20 μM, [Genta] 100 ug/ml) was 0.52 and the relative growth ([Cpd] 20 μM, [Genta] 200 ug/ml) was “*0.09”. For the same compound, the relative growth ([Cpd] 50 μM, [Genta] 100 ug/ml) was “*0.18” and the relative growth ([Cpd] 50 μM, [Genta] 200 ug/ml) was “*0.11”.
`COc1ccc(/C=C2\SC(=S)N(CC(=O)O)C2=O)cc1OCc1ccc(Cl)cc1Cl` [Compound 18] was tested, and the activity at 5 µM was 98%, the activity at 20 µM was 85% and the activity at 50 µM was 97%. For the same compound, the inhibition at 20 µM was 24%, the inhibition at 50 µM [4] was 30% and the relative growth ([Cpd] 5 μM, [Genta] 100 ug/ml) was 0.97. It also gave a relative growth ([Cpd] 5 μM, [Genta] 200 ug/ml) of 0.9, a relative growth ([Cpd] 20 μM, [Genta] 100 ug/ml) of 0.8 and a relative growth ([Cpd] 20 μM, [Genta] 200 ug/ml) of 0.76. The relative growth ([Cpd] 50 μM, [Genta] 100 ug/ml) was 0.88 and the relative growth ([Cpd] 50 μM, [Genta] 200 ug/ml) was 0.7.
With `COc1cc(/C=C2\SC(=S)N(CC(=O)O)C2=O)ccc1OCc1ccccc1` [Compound 22] the activity at 5 µM was 108%, the activity at 20 µM was 101% and the activity at 50 µM was 94%. The inhibition at 20 µM was 12%, the inhibition at 50 µM [4] was 48% and the relative growth ([Cpd] 5 μM, [Genta] 100 ug/ml) was 1.08. It also gave a relative growth ([Cpd] 5 μM, [Genta] 200 ug/ml) of 1.05, a relative growth ([Cpd] 20 μM, [Genta] 100 ug/ml) of 0.99 and a relative growth ([Cpd] 20 μM, [Genta] 200 ug/ml) of 0.88. The relative growth ([Cpd] 50 μM, [Genta] 100 ug/ml) was 0.91 and the relative growth ([Cpd] 50 μM, [Genta] 200 ug/ml) was 0.52.
Compound `COc1ccc(/C=C2\SC(=S)N(CC(=O)O)C2=O)cc1OCc1ccccc1` [Compound 24] has an activity at 5 µM of 96%, an activity at 20 µM of 93% and an activity at 50 µM of 92%. For the same compound, the inhibition at 20 µM was 27%, the inhibition at 50 µM [4] was 68% and the relative growth ([Cpd] 5 μM, [Genta] 100 ug/ml) was 0.94. For the same compound, the relative growth ([Cpd] 5 μM, [Genta] 200 ug/ml) was 0.95, the relative growth ([Cpd] 20 μM, [Genta] 100 ug/ml) was 0.92 and the relative growth ([Cpd] 20 μM, [Genta] 200 ug/ml) was 0.73. For the same compound, the relative growth ([Cpd] 50 μM, [Genta] 100 ug/ml) was 0.72 and the relative growth ([Cpd] 50 μM, [Genta] 200 ug/ml) was “*0.32”.
In the case of `COc1cc(/C=C2\SC(=S)N(CC(=O)O)C2=O)ccc1OCc1ccccc1F` [Compound 25], the activity at 5 µM is reported as 96%, the activity at 20 µM is reported as 91% and the activity at 50 µM is reported as 95%. The inhibition at 20 µM was 38%, the inhibition at 50 µM [4] was 58% and the relative growth ([Cpd] 5 μM, [Genta] 100 ug/ml) was 0.95. The relative growth ([Cpd] 5 μM, [Genta] 200 ug/ml) was 0.92, the relative growth ([Cpd] 20 μM, [Genta] 100 ug/ml) was 0.89 and the relative growth ([Cpd] 20 μM, [Genta] 200 ug/ml) was 0.62. For the same compound, the relative growth ([Cpd] 50 μM, [Genta] 100 ug/ml) was 0.91 and the relative growth ([Cpd] 50 μM, [Genta] 200 ug/ml) was 0.42.
